Experimental data: publication PMC7618453, “Calcium Competitive Inhibition of Langerin by Thiazolopyrimidinones” (Journal of Medicinal Chemistry, 2025)

Experiments:
murine langerin = conditions: in the presence of Ca^2+; previously reported, previous screening campaign (reference number not given); read-out: previously reported affinities; cited from earlier work
murine langerin CRD [1] = molecular target: T1, murine langerin CRD (Mus musculus, UniProt Q8VBX4); experiment: 43Ca NMR assay of Ca2+ binding to langerin in the presence of inhibitors; set-up: Chemical shift δ (Table S1, 43Ca NMR) / Linewidth ∆ν (Table S1, 43Ca NMR): unit not given here; conditions: Ca2+ + langerin + 400 μM inhibitor, pH 6.0; for Chemical shift δ (Table S1, 43Ca NMR): free 0.175, langerin-bound 0.116; for Linewidth ∆ν (Table S1, 43Ca NMR): free 0.89, langerin only 1.94; for Integral (relative to the ligand present free state) (Table S1, 43Ca NMR): free 1, langerin only 0.147
T1 construct: Murine langerin CRD (amino acids: 191–331) was cloned; made in house; host or cells: E. coli BL21
T1 sequence (Q8VBX4 191-331): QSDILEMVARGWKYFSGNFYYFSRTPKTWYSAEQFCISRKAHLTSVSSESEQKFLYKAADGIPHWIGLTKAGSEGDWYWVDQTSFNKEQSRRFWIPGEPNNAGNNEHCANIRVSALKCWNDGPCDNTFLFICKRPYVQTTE
Protocol: ^43Ca NMR samples contain 50 μM langerin CRD in 25 mM MES/NaOH and 40 mM NaCl, pH 6.0, with 2.5 mM ^43CaCl2 (elemental calcium enriched to 57.9%, prepared from CaCO3 by hydrolysis with conc. HClaq followed by drying under vacuum; repeated three times), 400 μM compound, and 10% D2O. The negative controls contain the same components except for the protein. The positive control has 5 mM EDTA for fully chelating 2.5 mM Ca^2+ in 25 mM MES/NaOH and 40 mM NaCl. A spectrum width between 50 and −50 ppm was chosen. NMR spectra were measured at 25 °C on a 500 MHz Bruker NEO spectrometer equipped with a BBO probe. The carrier frequency was set to 0 ppm, and spectra were recorded with a recovery delay of […] and 1024 scans. All experiments were carried out with constant concentrations, volumes, receiver gains, and numbers of averaged FIDs.
Data processing and visualization were performed using TopSpin 4.4.0 (Bruker BioSpin GmbH, Rheinstetten, Germany) and MestReNova 10.0 (Mestrelab Research, Santiago de Compostela, Spain). Spectra were processed using an exponential window function with 1.00 Hz, zero-filled to a final size of 32,768 points (from an original FID size of 3,424), and baseline-corrected using spline. Parameter extraction was performed on data fitted without a window function to ensure an unbiased representation of the spectral features. […]

murine langerin CRD [2] = molecular target: T1, murine langerin CRD; experiment: ITC titration of inhibitors into murine langerin CRD; type: binding; conditions: for Kd: ITC, 278.15 K; for Ligand efficiency (LE): based on the best affinities from both conditions (Ca2+ present/absent), Gibbs free energy / number of non-hydrogen atoms
Protocol: Isothermal titration calorimetry experiments were performed using a PEAQ-ITC from Malvern or a Nano ITC from TA Instruments at 278.15 K. Langerin CRD in 25 mM MES/NaOH pH = 6.0 with 40 mM NaCl was injected in the sample cell (total volume 170–300 μL, receptor concentration 80–100 μM) of the device. The titrant was dissolved in the same buffer as the protein and added in 20 steps of 2.5 μL (first injection, 1.2 μL; total volume, 50 μL) while stirring at 350 rpm. The differential heat of each injection was measured and plotted against the molar ratio. All thermograms were integrated using NITPIC, the titration curves were fitted using SEDPHAT with error estimates using the confidence interval, and all figures were made in GUSSI.
For Ca^2+ titration, calcium chloride solutions were prepared in 25 mM MES/NaOH, 40 mM NaCl in the syringe. Langerin CRD was dialyzed against 25 mM MES/NaOH, 40 mM NaCl with 10 mM EDTA, and subsequently 25 mM MES/NaOH, 40 mM NaCl, to remove Ca^2+ before loading into the sample cell. The thermogram of Ca^2+ titration was fitted with the One-Site (independent) model. In the Ca^2+ present titration set up, the protein was in 25 mM MES/NaOH, 40 mM NaCl with 5 mM calcium chloride, and 5% DMSO in the sample cell. The ligand concentration was set to 0.1–2 mM, depending on the solubility, and dissolved in the same buffer as the protein. The raw data were fitted using either the One-Site (independent) model or the Competitive Binding model. Affinity and enthalpy data of Ca^2+ binding to langerin were extracted from the Ca^2+ titration and applied in the Competitive Binding model subsequently. In the Ca^2+ absent titration set up: ligand concentration was set to 0.1–2 mM, receptor concentration was set to 80–100 μM, both dissolved in 25 mM MES/NaOH, 40 mM NaCl with 5%DMSO. The thermogram was fitted with the one-site (independent) model.
Isothermal Titration Calorimetry (ITC)
The raw ITC data were initially processed using the default software provided by respective ITC instrument: MicroCal PEAQ-ITC Analysis Software 1.41 and Nanoanalyze Data Analysis 3.5.0. For MicroCal, the fitting model was set to One Set of Sites, with the following parameters: baseline option (time factor 5, points per injection 25), control parameter set to Fitted Offset, site value fixed at 1 and other parameters set to vary. For Nanoanalyze, blank titration files were used for area correction, fitting model set to independent, binding site n fixed at 1, and other parameters allowed to vary.
The raw data from both systems were further processed using NITPIC 2.1.0, baseline type set to Best Fit, with pre- and post-injection tail correction applied, integral significance level was adjusted based on the quality of each titration, and the outlier threshold was defined as twice of the standard deviation. The processed data were then analyzed in SEDPHAT 15.2b. For Ca2+ titration and ligand titration in the absence of Ca2+, the fitting model was set as Hetero Association A-B (Single-site model) with the global parameter log(Ka) and dHAB set as vary. For ligand titration in the presence of Ca2+, the fitting model was set as Competing B and C for A (Competitive binding model) with the global parameter log(KAC) and dHAC set as the data obtained from Ca2+ titration (4.336 and -8.2 kcal/mol), and log(KAB) and dHAB as vary. Experimental parameters for titration were defined as Titrating B into AC. Final presentation of the […]

[3] = Solubility assessment using 1H NMR; type: physicochemical; conditions: DSS reference, titrated from DMSO stock into protein buffer
Protocol: The compounds were dissolved in 100 mM DMSO and titrated into the same buffer solution where the protein was stored for different essays. DSS was used as the reference with a concentration of 100 µM. The integration and chemical shift of the ligand signals were monitored as indicators of potential aggregation. The solubility of compounds 1, 2, 3 were reported elsewhere. 1
Figure S1. Solubility assessment of compound 3 and 5 using 1H NMR. Compound […]
with the expected ratio relative to DSS, indicating its solubility at 1 mM in aqueous […]
(1 picture or pasted object on this page, not shown here)

murine langerin CRD [4] = molecular target: T1, murine langerin CRD; experiment: 19F R2-filtered NMR assay with carbohydrate reporter ManNAcF3; type: binding; conditions: 25 mM MES/NaOH, 40 mM NaCl, 5 mM CaCl2, pH 6.0; 50 μM protein; read-out: K D of the carbohydrate reporter
Protocol: ^19F-NMR and ^19F-R2-filtered NMR experiments were conducted on a Bruker UltraShield 500 MHz spectrometer at 298 K. Spectra were processed in MestReNova 12.0, and data analysis was performed with GraphPad Prism version 10.2.0 for Windows (GraphPad Software, Boston, Massachusetts, USA, www.graphpad.com). Relaxation rates R 2,obs were determined with the CPMG pulse sequence, eq shown below. T represents the relaxation time, and I 0 is the integral at a T value of 0 s. The relaxation delay d 1 was set to 2.0 s, the acquisition time t acq was set to 0.87 s, and the frequency of 180° pulses νCPMG was set to 500 Hz. I=I0e^−R2,obsT 2
The KD value of the reporter was determined in a titration experiment at five concentrations [L]T with 50 μM protein. Samples were prepared via serial dilution. The K D and the R 2,b value of the reporter molecule were derived from eq by detection of the ^19F NMR relaxation rate R 2,obs in a two-parameter fit. R 2,b represents the relaxation rate in the bound state of the ligand, and p b is the bound fraction of the ligand, while [P]T represents the concentration of the receptor. The relaxation rate of the free ligand R 2,f was measured at 0.1 mM in the absence of the receptor. […]
Due to the complex equilibrium and competition effects present in the competitive binding experiments, EC50 values were utilized to quantify the inhibition degree. […]

langerin = conditions: previous results using more elaborate structures from this series (reference number not given); cited from earlier work
[5] = Ca2+-depleted protein, 25 mM MES/NaOH pH 6.0, 40 mM NaCl, 5% DMSO, read-out: K D [single-site model] (A + B ↔ AB), Ca^2+ absent
[6] = 5 mM CaCl2, 25 mM MES/NaOH pH 6.0, 40 mM NaCl, 5% DMSO, mean ± standard error of fit, read-out: K D [single-site model] (A + B↔AB), Ca^2+ present
[7] = 5 mM CaCl2, pH 6.0, 5% DMSO, competition between inhibitor and Ca2+ assumed, read-out: K D [competitive binding model] (A + B + C ↔ AB + C ↔ AC + B), Ca^2+ present

SMILES | Kd (murine langerin) [µM] | Chemical shift δ (Table S1, 43Ca NMR) (murine langerin CRD [1]) | Linewidth ∆ν (Table S1, 43Ca NMR) (murine langerin CRD [1]) | Integral (relative to the ligand present free state) (Table S1, 43Ca NMR) (murine langerin CRD [1]) | Kd (murine langerin CRD [2]; [5]) [µM] | Ligand efficiency (LE) (murine langerin CRD [2]) [kcal·mol^–1·HA^–1] | Kd (murine langerin CRD [2]; [6]) [µM] | Kd (murine langerin CRD [2]; [7]) [µM] | solubility ([3]; aqueous protein storage buffer, aqueous buffer, kinetic from dmso stock) [µM] | Solubility in aqueous buffer [3] | Kd (murine langerin CRD [4]) [mM] | Competition with Ca^2+ (langerin)
O=C(O)c1cnc2sccn2c1=O [Compound 1] | 700 | 0.173 | 2.80 | 0.355 | 1100 ± 300 | 0.31 |  |  |  |  |  | 
Cc1csc2ncc(C(=O)O)c(=O)n12 [Compound 2] | 1200 | 0.154 | 1.79 | 0.324 | 19 ± 2 | 0.46 | 400 ± 70 | 81 ± 12 |  |  |  | 
Cc1sc2ncc(C(=O)O)c(=O)n2c1C [Compound 3] | 900 | 0.139 | 1.78 | 0.344 | 53 ± 8 | 0.44 | 150 ± 40 | 17 ± 4 | ≥ 1000 |  |  | 
NCCNC(=O)c1cnc2ccccn2c1=O [Compound 4, N-(2-Aminoethyl)-4-oxo-4H-pyrido[1,2-a]pyrimidine-3-carboxamide] |  | 0.174 | 1.64 | 0.316 | 200 ± 90 | 0.27 | 8500 ± 2000 | 480 ± 70 |  |  |  | 
O=C(O)c1cnc2ccccn2c1=O [Compound 5, 4-oxo-4H-pyrido[1,2-a]pyrimidine-3-carboxylic acid] |  |  |  |  |  |  |  |  |  | partial solubility |  | 
C#CCO[C@H]1O[C@H](CO)[C@@H](O)[C@H](O)[C@@H]1NC(=O)C(F)(F)F [ManNAcF3] |  |  |  |  |  |  |  |  |  |  | 28 ± 5 | 
O=C(NCCc1cn2c(n1)SCC2)c1cnc2sccn2c1=O [N-(2-(2,3-dihydroimidazo[2,1-b]-thiazol-6-yl)-ethyl)-5-oxo-5H-thiazolo[3,2-a]-pyrimidine-6-carboxamide] |  |  |  |  |  |  |  |  |  |  |  | did not show competition with Ca^2+
